Measured values reported in US7071227B2, “Antiviral compositions and methods of use” (The Johns Hopkins University, priority 2000, dated 2006).
Converted amounts (≈) assume the structure as drawn. “And” between values parts separate entries of the source, which are not always exact repeats. Identical values can stand only once. Like-named read-outs stand apart in the source and are kept apart here.

Columns and labels:
H9 cells = experiment: MTT cytotoxicity assay; assay type: cell-based, human; conditions: 4 days
Experimental: The cytotoxicity of M522 and M532 drugs against H9 cells was analyzed using MTT [3-(4,5-dimethylthiazol-2-yl)-2,5-diphenyltetrazolium bromide] assay (Sigma Chemical Co.) (Uckun et al., 1998). Briefly, exponentially growing H9 cells were seeded onto 96-well plates at a density of 3×10^4 cells/well and incubated for 24 h at 37° C. prior to drug exposure. On the day of treatment, a series Of M522 and M532 concentrations (1.25, 2.5, 5, 10, 20, 40, 80, and 160 μg/ ml) were used to test their cytotoxicity in H9 cells. Quadruplicate wells were used for each treatment. The cells were incubated with M522 and M532 for 4 days at 37° C. in a humidified 5% CO2 atmosphere. To each well, 50 μl of MTT (1 mg/ml final concentration) was added and the plates were incubated at 37° C. for 4 h to allow MTT to form formazan crystals by reacting with metabolically active cells. The formazan crystals were solubilized with DMSO. The absorbance of each well was measured in a microtiter reader at optical density 540 nm. The reaction is specific, no significant amounts of formazan can be detected with dead cells.

HIV-1 integrase = HIV-1 integrase (Human immunodeficiency virus type 1 group M subtype B, UniProt P12497); experiment: HIV-1 integrase 3'-end processing assay; assay type: biochemical
Experimental: The HIV-1 integrase assay utilized in testing described below used a DNA substrate consisting of a DNA sequence derived from the U5 end of HIV-1 LTR. It was prepared by annealing oligonucleotide U5V1 (5′-[…]) with its complementary strand U5V2 (3′-[…]). The U5V1 strand was labeled at the 5′-end with [γ-^32P] ATP using T4 polynucleotide kinase as described previously (Kamata et al., 1994). The standard reaction mixture included reaction buffer (40 mM HEPES, pH 7.5, 20 mM MnCL2, 60 mM NaCl, 20 mM DTT and 0.1% Nonidet-P40) and HIV-1 integrase (NIH AIDS Research and Reference Reagent Program). To assay for 3′-end processing, the labeled substrate was incubated with the reaction mixture for 60 minutes at 37° C. An equal volume of stop solution (95% formamide, 30 mM EDTA, 0.1% xylene cyanol, 0.1% bromophenol blue) was added to each reaction and the samples were heated to 95°′ C. for 5 minutes to denature the DNA. The samples were then fractionated by electrophorsis on a 15% denaturing polyacrylamide gel. The 3′-end processing activity was monitored by the appearance of a radioactive oligonucleotides product (33 nt), shortened by two nucleotides from the original substrate (35 nt). The products were visualized by autoradiography and quantitation was carried out by phosphorimaging.

[1] = tested on: HIV-1IIIBA17 and HIV-1L10R/M461/L63P/V82T/184V; experiment: HIV replication in infected H9 cells, HIV/p24 monoclonal antibody assay; assay type: cell-based; conditions: Human immunodeficiency virus 1, H9, read-out: IC50 against HIV replication
Experimental: The following cells and virus strains were obtained from the AIDS Research and Reference Regent Program, Division of AIDS, National Institute of Allergy and Infectious Diseases: H9 cells, virus strains of HIV-1IIIBA17, a variant resistant to RT nonnucleotide inhibitors and HIV-1L10R/M461/L63P/V82T/184V, a protease inhibitor resistant virus, as well as viral strains HTLV-IIImn, HIV-1RTMF and HTLV-IIIB. Virus-infected H9 cells were cultured in the presence of different concentrations of M522 and M532 and viral replication was assayed using the HIV/p24 monoclonal antibody assay.
The inhibitory effect of M522 and M532 against HIV replication was further examined using HIV-1IIIBA17, a variant resistant to RT nonnucleotide inhibitors and HIV-1L10R/M461/L63P/V82T/184V, a protease inhibitor resistant virus, as testing viruses in the presence of a variety of drug concentrations in infected H9 cells.
FIG. 7A graphically illustrates the effect of M522 and M532 on HIV-1 replication. FIG. 7A illustrates the dose-dependent inhibition of HIV-1 replication in H9 cells infected with HIV-1IIIBA17 and HIV-1L10R/M461/L63P/V82T/184V viruses in the presence of different drug concentrations of M522 and M532.

HTLV-IIIB = experiment: HIV-1 replication in H9 cells, p24 antigen assay; assay type: cell-based; conditions: for IC50: Human immunodeficiency virus 1, 192 h, H9 cells, 8 days; for inhibition at 1.25 µg/mL: Human immunodeficiency virus 1, H9, 1.25 μg/ml; for inhibition at 2.5 µg/mL: Human immunodeficiency virus 1, H9, 2.5 μg/ml; for inhibition at 5 µg/mL: Human immunodeficiency virus 1, H9, 5.0 μg/ml; for inhibition at 10 µg/mL: Human immunodeficiency virus 1, H9, 10.0 μg/ml; for inhibition at 20 µg/mL: Human immunodeficiency virus 1, H9, 20.0 μg/ml; for inhibition at 40 µg/mL: Human immunodeficiency virus 1, H9, 40.0 μg/ml; for inhibition at 80 µg/mL: Human immunodeficiency virus 1, H9, 80.0 μg/ml
Experimental: (§1) Inhibitory activity of M522 and M532 against the replication of four different HIV-1 strains was tested in this example. Two of the strains were drug-resistant virus isolates (HIV-1RTMF resistant against AZT and HIV-1IIIBA17 variant resistant against inhibition by RT nonnucleotide inhibitors) and the other two were primary isolates (HTLV-IIIMN and HTLV-IIIB).
(§2) On the day before infection, H9 cells were subcultured at 1–2×10^5 cells/ml and on the day of the infection, cells were pelleted by centrifugation at room temperature for 10 minutes. The pellet was then resuspended with 1 ml of each strain according to the virus titer. The mixtures were incubated at 37 ° C. in CO2 incubator for 2 hours. The cells were then washed two times with PBS and then two times with the culture medium (RPMI 1640). The cells were resuspended with fresh medium and plated in 96 well plates. Every 3–4 days after infection, cells were sub-cultured and supernatant was saved to assay for virus production.
(§3) The activity of M522 against the four strains were tested at various drug concentrations of 80, 40, 20, 10, 5, 2.5, 1.25, and 0 μg/ml. After 8 days, the infection of the cells was detected by using HIV-1 p24 antigen assay, which is an enzyme immunoassay (EIA, or enzyme-linked immunosorbent assay) developed for detection and quantitation of the HIV-1 p24 core protein.

HIV-1IIIBA17 variant = experiment: HIV-1 replication in H9 cells, p24 antigen assay; assay type: cell-based; conditions: for inhibition at 1.25 µg/mL / inhibition at 2.5 µg/mL / inhibition at 5 µg/mL / inhibition at 10 µg/mL / inhibition at 20 µg/mL / inhibition at 40 µg/mL / inhibition at 80 µg/mL: Human immunodeficiency virus 1, H9; for IC50: Human immunodeficiency virus 1, H9, 192 h, read-out: IC50, HIV-1 replication
Experimental: as §1, §2, §3

HIV-1RTMF = experiment: HIV-1 replication in H9 cells, p24 antigen assay; assay type: cell-based; conditions: for inhibition at 1.25 µg/mL / inhibition at 2.5 µg/mL / inhibition at 5 µg/mL / inhibition at 10 µg/mL / inhibition at 20 µg/mL / inhibition at 40 µg/mL / inhibition at 80 µg/mL: Human immunodeficiency virus 1, H9; for IC50: Human immunodeficiency virus 1, H9, 192 h, read-out: IC50, HIV-1 replication
Experimental: as §1, §2, §3

HTLV-IIIMN = experiment: HIV-1 replication in H9 cells, p24 antigen assay; assay type: cell-based; conditions: for IC50: Human immunodeficiency virus 1, 192 h, H9 cells, 8 days; for inhibition at 1.25 µg/mL: Human immunodeficiency virus 1, H9, 1.25 μg/ml; for inhibition at 2.5 µg/mL: Human immunodeficiency virus 1, H9, 2.5 μg/ml; for inhibition at 5 µg/mL: Human immunodeficiency virus 1, H9, 5.0 μg/ml; for inhibition at 10 µg/mL: Human immunodeficiency virus 1, H9, 10.0 μg/ml; for inhibition at 20 µg/mL: Human immunodeficiency virus 1, H9, 20.0 μg/ml; for inhibition at 40 µg/mL: Human immunodeficiency virus 1, H9, 40.0 μg/ml; for inhibition at 80 µg/mL: Human immunodeficiency virus 1, H9, 80.0 μg/ml
Experimental: as §1, §2, §3

Structure (SMILES): O=C(/C=C/c1ccc(O)c2c1[C@H](C(=O)O)[C@@H](c1ccc(O)c(O)c1)O2)O[C@H](Cc1ccc(O)c(O)c1)C(=O)O [M522, 4-{2-[1-carboxy-2-(3,4-dihydroxy-phenyl)-ethoxycarbonyl]-vinyl}-2-(3,4-dihydroxy-phenyl)-7-hydroxy-2,3-dihydro-benzofuran-3-carboxylic acid]
- CC100; cells remained viable at highest concentration tested (H9 cells): > 297 µM
- IC50 (HIV-1 integrase; read-out: IC50, inhibition of HIV-1 integrase 3' processing activity (converted)): 836 nM and 830 nM
- IC50 [1]: 1.5 µg/mL and 2.7 µM
- IC50 (HTLV-IIIB): 11 µg/mL (≈ 20.4 µM)
- inhibition at 1.25 µg/mL (HTLV-IIIB): 31.4%
- inhibition at 2.5 µg/mL (HTLV-IIIB): 42.1%
- inhibition at 5 µg/mL (HTLV-IIIB): 45.9%
- inhibition at 10 µg/mL (HTLV-IIIB): 47.3%
- inhibition at 20 µg/mL (HTLV-IIIB): 62%
- inhibition at 40 µg/mL (HTLV-IIIB): 82.4%
- inhibition at 80 µg/mL (HTLV-IIIB): 94.5%
- inhibition at 1.25 µg/mL (HIV-1IIIBA17 variant): 51.2%
- inhibition at 2.5 µg/mL (HIV-1IIIBA17 variant): 53.6%
- inhibition at 5 µg/mL (HIV-1IIIBA17 variant): 76.8%
- inhibition at 10 µg/mL (HIV-1IIIBA17 variant): 85%
- inhibition at 20 µg/mL (HIV-1IIIBA17 variant): 90.2%
- inhibition at 40 µg/mL (HIV-1IIIBA17 variant): 100%
- inhibition at 80 µg/mL (HIV-1IIIBA17 variant): 100%
- IC50 (HIV-1IIIBA17 variant): 1.5 µg/mL (≈ 2.79 µM)
- inhibition at 1.25 µg/mL (HIV-1RTMF): 26.2%
- inhibition at 2.5 µg/mL (HIV-1RTMF): 47.7%
- inhibition at 5 µg/mL (HIV-1RTMF): 78.6%
- inhibition at 10 µg/mL (HIV-1RTMF): 83.4%
- inhibition at 20 µg/mL (HIV-1RTMF): 95.5%
- inhibition at 40 µg/mL (HIV-1RTMF): 98.2%
- inhibition at 80 µg/mL (HIV-1RTMF): 100%
- IC50 (HIV-1RTMF): 2.7 µg/mL (≈ 5.01 µM)
- IC50 (HTLV-IIIMN): 9 µg/mL (≈ 16.7 µM)
- inhibition at 1.25 µg/mL (HTLV-IIIMN): 7.7%
- inhibition at 2.5 µg/mL (HTLV-IIIMN): 21.8%
- inhibition at 5 µg/mL (HTLV-IIIMN): 30%
- inhibition at 10 µg/mL (HTLV-IIIMN): 51.9%
- inhibition at 20 µg/mL (HTLV-IIIMN): 72.1%
- inhibition at 40 µg/mL (HTLV-IIIMN): 77.3%
- inhibition at 80 µg/mL (HTLV-IIIMN): 88.4%

Structure (SMILES): O=C(/C=C/c1ccc(O)c2c1[C@H](C(=O)O[C@H](Cc1ccc(O)c(O)c1)C(=O)O)[C@@H](c1ccc(O)c(O)c1)O2)O[C@H](Cc1ccc(O)c(O)c1)C(=O)O [M532, 4-{2-[1-carboxy-2-(3,4-dihydroxy-phenyl)-ethoxycarbonyl]-vinyl}-2-(3,4-dihydroxy-phenyl)-7-hydroxy-2,3-dihydro-benzofuran-3-carboxylic acid 1-carboxy-2-(3,4-dihydroxy-phenyl)-ethyl ester]
- CC100; cells remained viable at highest concentration tested (H9 cells): > 223 µM
- IC50 (HIV-1 integrase; IC50, inhibition of HIV-1 integrase 3' processing activity): 487 nM and 450 nM
- IC50 [1]: 1 µg/mL and 1.39 µM
- IC50 (HTLV-IIIB): 11 µg/mL (≈ 15.3 µM)
- inhibition at 1.25 µg/mL (HTLV-IIIB): 4.7%
- inhibition at 2.5 µg/mL (HTLV-IIIB): 16.1%
- inhibition at 5 µg/mL (HTLV-IIIB): 20.1%
- inhibition at 10 µg/mL (HTLV-IIIB): 34.5%
- inhibition at 20 µg/mL (HTLV-IIIB): 90.8%
- inhibition at 40 µg/mL (HTLV-IIIB): 96.2%
- inhibition at 80 µg/mL (HTLV-IIIB): 96.8%
- inhibition at 1.25 µg/mL (HIV-1IIIBA17 variant): 2%
- inhibition at 2.5 µg/mL (HIV-1IIIBA17 variant): 21.8%
- inhibition at 5 µg/mL (HIV-1IIIBA17 variant): 50%
- inhibition at 10 µg/mL (HIV-1IIIBA17 variant): 53.6%
- inhibition at 20 µg/mL (HIV-1IIIBA17 variant): 97.5%
- inhibition at 40 µg/mL (HIV-1IIIBA17 variant): 97.7%
- inhibition at 80 µg/mL (HIV-1IIIBA17 variant): 98.4%
- IC50 (HIV-1IIIBA17 variant): 5 µg/mL (≈ 6.96 µM)
- inhibition at 1.25 µg/mL (HIV-1RTMF): 20.8%
- inhibition at 2.5 µg/mL (HIV-1RTMF): 38.7%
- inhibition at 5 µg/mL (HIV-1RTMF): 44.2%
- inhibition at 10 µg/mL (HIV-1RTMF): 73.6%
- inhibition at 20 µg/mL (HIV-1RTMF): 90.4%
- inhibition at 40 µg/mL (HIV-1RTMF): 95%
- inhibition at 80 µg/mL (HIV-1RTMF): 98.3%
- IC50 (HIV-1RTMF): 5.6 µg/mL (≈ 7.79 µM)
- IC50 (HTLV-IIIMN): 5.5 µg/mL (≈ 7.65 µM)
- inhibition at 1.25 µg/mL (HTLV-IIIMN): 8.3%
- inhibition at 2.5 µg/mL (HTLV-IIIMN): 45.7%
- inhibition at 5 µg/mL (HTLV-IIIMN): 47%
- inhibition at 10 µg/mL (HTLV-IIIMN): 57.2%
- inhibition at 20 µg/mL (HTLV-IIIMN): 87%
- inhibition at 40 µg/mL (HTLV-IIIMN): 90%
- inhibition at 80 µg/mL (HTLV-IIIMN): 94.1%
